Reference: US10064815B2, “Formulations and methods for vaginal delivery of antiprogestins” (REPROS THERAPEUTICS INC., priority 2014, dated 2018)

Tests used:
uterine fibroids = experiment: Previous oral studies of CDB-4124 (menses, fibroid size, symptoms); type: in vivo, human
Description: (§1) In a previous oral study, doses of 1, 3, 6, 9 and 12 mg of CDB-4124 were administered for a period of 10 weeks. […] Cessation of menses directly correlates to efficacy of an oral dose in both uterine fibroids and endometriosis. […] Given the overall low exposure of the 12 mg dose, in those women that continued to menstruate, further improvements in reduction of symptoms are expected with longer exposure to the drug. In efficacy studies in which CDB-4124 was administered orally, women experienced a nearly 50% reduction in mean fibroid size at a 25 mg dose. When those women were then escalated to a 50 mg oral dose for an additional four months, fibroid size was reduced to approximately 25% of the initial volume. […] It is expected that vaginal delivery of CDB-4124 at the 12 mg dose will have greater activity than the oral 50 mg dose despite a maximum exposure 1/100th of the 50 mg oral dose. Even with this low exposure after only 4 weeks of treatment, significant improvements in fibroid related condition have been observed.

[1] = tested on: human females with uterine fibroids; experiment: Efficacy of vaginal 12 mg CDB-4124 in women with uterine fibroids (menses, PBAC, UFSQOL); type: in vivo
Description: (§2) Capsugel NPcaps® were filled with the excipient fill formulations described above with 12 mg CDB-4124 (telapristone acetate) and administered vaginally to human females with uterine fibroids once per day for a period of 2 weeks to determine the length of time required to reach steady state and overall systemic exposure of the parent compound (CDB-4124) and the primary metabolite (CDB-4453). The capsules were administered using a commercially available vaginal applicator modified by reversing the insert (see FIG. 5). The unmodified applicator comprises a barrel and plunger with the barrel having a relatively wide opening on one end and a relatively narrow opening on the other end. The applicator is designed such that the drug is placed in the end with the larger diameter opening (entrance end), the applicator is inserted into the vagina and the plunger is used to push the drug out the barrel and into the vagina. For insertion of the filled NPcaps, the shell end of the capsule (having a […] diameter) was placed into the narrow opening in the barrel, leaving the cap exposed. […] Pharmacokinetic data was then obtained from patients.
as §1, with “Even with this low exposure after only 4 weeks of treatment, significant improvements in fibroid related condition have been observed.” left out

[2] = Pharmacokinetics of vaginal pullulan capsules with 12 mg CDB-4124 in women with uterine fibroids, compared with oral doses; type: in vivo, human
Description: as §2

vaginal mucous membrane = experiment: Cumulative vaginal mucous membrane irritancy in rabbits; type: in vivo, New Zealand White rabbits; conditions: rabbit
Description: Pullulan capsules (Capsugel NPcaps®, size 0) comprising CDB-4124 were administered once daily for 10 consecutive days intravaginally to 10 healthy virgin female New Zealand White rabbits in order to determine the cumulative vaginal mucous membrane irritancy potential and to obtain plasma samples for pharmacokinetic analysis. Five rabbits were assigned to each of two groups, the first dosed with vehicle control (pullulan capsules with 0.5 ml PEG 1000 fill) introduced into the upper vaginal vault of each rabbit using a syringe applicator (Group 1), the second with CDB-4124 (pullulan capsules with 12 mg CDB-4124 in 0.5 ml PEG 1000) (Group 2). The external vaginal mucosa of each animal was examined for erythema, edema and discharge prior to the initial dose, immediately prior to each treatment and prior to sacrifice. All animals were examined for gross pathology.

[3] = 12 mg vaginal, pair-wise comparison of 6 women
[4] = 12 mg CDB-4124 vaginally daily for 10 days

Structure (SMILES): COCC(=O)[C@@]1(OC(C)=O)CC[C@H]2[C@@H]3CCC4=CC(=O)CCC4=C3[C@@H](c3ccc(N(C)C)cc3)C[C@@]21C [CDB-4124, 21-methoxy-17α-acetoxy-11β-(4 N,N-dimethylaminophenyl)-19-norpregna-4,9-diene-3,20-dione]
- fibroid size as % of the initial volume (uterine fibroids; escalated to 50 mg oral for an additional four months): approximately 25%
- efficacy of 1 mg oral dose (uterine fibroids; oral 1 mg): ineffective
- reduction in mean fibroid size (uterine fibroids; oral 25 mg dose): ~50%
- tolerability (uterine fibroids; oral 1, 3, 6, 9 and 12 mg for 10 weeks): all doses were well tolerated
- fibroid symptoms scored by UFSQOL (uterine fibroids; oral CDB-4124): in general, symptom free
- lowest dose inducing reliable cessation of menses (uterine fibroids; oral, 10 weeks): 3 mg
- cessation of menses (number of women) ([1]; 12 mg vaginal dose, 6 women compared): 3
- statistical significance (p) of reduction in menstrual bleeding, Pictorial Blood Loss Assessment Chart (PBAC) [1, 3]: < 0.05
- statistical significance (p) of reduction in overall uterine fibroid symptoms, UFSQOL [1, 3]: < 0.05
- maximum exposure relative to the 50 mg oral dose ([2]; 12 mg vaginal dose): 1/100
- Cmax compared with oral doses ([2]; 12 mg vaginal versus 1, 3, 6, 9, 12 mg oral, FIG. 2): lower than any of the oral doses
- time to steady state concentration ([2]; women with uterine fibroids, 12 mg vaginal pullulan capsule once per day): within one week
- systemic exposure (AUC) relative to an equivalent oral dose ([2]; women with uterine fibroids, 12 mg vaginal versus oral, FIG. 1): about ⅙
- gross findings in ovaries, uterus, vagina (vaginal mucous membrane; [4]): No gross findings
- histopathological findings (vaginal mucous membrane; [4]): nor were any histopathological findings observed
- external vaginal mucosa (erythema, edema) (vaginal mucous membrane; 12 mg CDB-4124 vaginally daily for 10 days, 2/5 rabbits on 4 occasions, otherwise normal): very slight erythema and/or edema
- irritation index (vaginal mucous membrane; pullulan capsules, 12 mg CDB-4124 in 0.5 ml PEG 1000, vaginally daily for 10 days): none
